Data published in US20230285357A1, “COMPOSITIONS AND METHODS FOR […] CELLS” (The Regents of the University of California, priority 2020, published 2023).

Tests used:
[1] = system: osteoblasts; assay: Osteogenesis assay in osteogenic induction media, von Kossa staining; type: cell-based, mouse
Description: To assess the functional capacity of SB216763-treated osteoblasts, they were treated with osteogenic induction media in vitro. […] A transplantation experiment was then performed to examine the capacity for bone formation using a well-established bone formation assay in vivo. This assay was adapted and eGFP positive cells were used, which were isolated from SB216763-treated Flk1-eGFP osteoblasts (FIG. 2, Part A).
The cells were then subjected to osteogenic induction media. […] Cells was transplanted into nude mice to test ectopic bone formation.

[2] = system: eGFP positive cells from SB216763-treated Flk1-eGFP osteoblasts; assay: Tube formation assay in vitro; type: cell-based, mouse
Description: Then, same cells in a model of hindlimb ischemia in nude mice to evaluate the capacity of eGFP positive cells in vascular repair were tested. After ligation of the proximal and distal femoral artery, eGFP positive cells were transplanted (FIG. 2, Part F). Human aortic endothelial cells (HAECs) and osteoblasts were used as controls.
Tube formation assays in vitro was then tested. […] Cells into hindlimb ischemia mouse model were transplanted.

Compound: Cn1cc(C2=C(c3ccc(Cl)cc3Cl)C(=O)NC2=O)c2ccccc21 [SB216763]
- mineralization, von Kossa staining ([1]; SB216763-treated cells after restoring SMAD1 or depletion of β-catenin): clear mineralization
- mineralization, von Kossa staining ([1]; SB216763-treated cells in osteogenic induction media): lack of mineralization
- tube formation ([2]; SB216763-treated cells with β-catenin depletion): decrease of tube formation
- tube formation ([2]; eGFP positive cells from treated osteoblasts): robust tube formation
